Values quoted from earlier work in patent US20260272825A1, “LEVONORGESTREL AND COMPOSITIONS COMPRISING THE SAME” (CHEMO RESEARCH, S.L., priority 2023, published 2026).

Tested on: women

For `C[C@]12CCC3=C4CCC(=O)C=C4CC[C@H]3[C@@H]1CC[C@@]2(O)CC#N` [DNG, Dienogest], the “Ovulation inhibition / ovarian activity, in words” value (2 mg daily) is listed as “provides ovulation inhibition, but ovarian activity is not completely suppressed”.
In the case of `C#C[C@]1(OC(C)=O)CC[C@H]2[C@@H]3CCC4=CC(=O)CC[C@@H]4[C@H]3CC[C@@]21C` [NETA, norethisterone acetate], the “Dosage providing ovulation inhibition” value (given continuously over 28 days) is listed as no less than 0.35 mg/daily.
In the case of `C#C[C@]1(O)CC[C@H]2[C@@H]3CCC4=CCCC[C@@H]4[C@H]3C(=C)C[C@@]21CC` [desogestrel], the “Cycles with ovulation inhibited” value (POP containing desogestrel 0.075 mg) is listed as “at least 98%”.
